{"source": "patent US20070092575A1", "about": "“Compositions for administering RNAIII-inhibiting peptides” (priority 2005, published 2007)", "origin": "cited, not measured here", "key": {"S. aureus MS": {"system": "S. aureus MS", "details": "Osteomyelitis, rabbit, strain MS, +RIP"}, "S. aureus LS-1 [1]": {"system": "S. aureus LS-1", "details": "Sepsis, mouse, strain LS-1, +RIP"}, "S. aureus LS-1 [2]": {"system": "S. aureus LS-1", "details": "Arthritis, mouse, strain LS-1, +RIP"}, "S. aureus 8325-4": {"system": "S. aureus 8325-4", "details": "Keratitis, rabbit, strain 8325-4, +RIP"}, "[3]": {"system": "S. aureus Newbould 305, AE-1", "details": "Mastitis, cow, strain Newbould/AE-1, +RIP"}, "[4]": {"system": "S. aureus strain Smith diffuse", "details": "Cellulitis/sepsis, mouse, +RIP"}, "[5]": {"system": "MRSA, MRSE, VISA, VISE, GISA, GISE, MSSA, MSSE", "details": "Graft injection, rat, +RIP"}}, "note": "Like-named read-outs stand apart in the source and are kept apart here. Ends that are not written are not given here.", "data": [{"substance": "YSPWTNF(-NH2) (YSPWTNF-NH2) [RIP, amide form of a synthetic RIP analogue]", "values": [{"measurement": "% animals disease free", "setting": "S. aureus MS", "value": 58, "unit": "%"}, {"measurement": "% animals disease free", "setting": "S. aureus LS-1 [1]", "value": 44, "unit": "%"}, {"measurement": "% animals disease free", "setting": "S. aureus LS-1 [2]", "value": 60, "unit": "%"}, {"measurement": "% animals disease free", "setting": "S. aureus 8325-4", "value": 40, "unit": "%"}, {"measurement": "% animals disease free", "setting": "[3]", "value": "70-100%"}, {"measurement": "% animals disease free", "setting": "[4]", "value": "Up to 100%"}, {"measurement": "% animals disease free", "setting": "[5]", "value": "Up to 100%"}]}]}
